Reference: US11357779B2 (G1 Therapeutics, Inc., priority 2018, dated 2022)

Assay: Noncompartmental pharmacokinetic parameters (Cmax, Tmax, AUC, Racc) in QD and BID cohorts of Form B
Format: in vivo, human
Conditions: for Racc (Max) / Racc (Mean) / Racc (Median) / Racc (Min): AUCDay 29/AUCDay 1
Description: Analysis of plasma concentration versus time data for calculation of standard pharmacokinetic (PK) parameters following oral administration was conducted using Phoenix WinNonlin version 6.3 using actual blood sampling times.
The following pharmacokinetic parameters were calculated from the concentration versus time data obtained in Example 1 for each of the above QD (200 mg, 300 mg, 400 mg, 500 mg, or 650 mg dosed) and BID (100 mg, 150 mg, or 200 mg doses) Form B of Compound II dosage cohorts: • Cmax—the observed peak plasma concentration determined from the plasma concentration versus time data obtained on Day 1 and Day 29, as applicable; • Tmax—the time to reach the observed peak plasma concentration from the plasma concentration versus time data obtained on Day 1 and Day 29, as applicable; • AUC—area under the plasma concentration versus time curve during a dosing interval on Day 1 and Day 29, as applicable; and • Racc—accumulation ratio calculated as AUCDay 29/AUCDay 1.

[1] = Cohort 1, 200 mg QD of Form B, Day 1
[2] = Cohort 2, 300 mg QD of Form B, Day 1
[3] = Cohort 3, 400 mg QD of Form B, Day 1
[4] = Cohort 4, 500 mg QD of Form B, Day 1
[5] = Cohort 5, 650 mg QD of Form B, Day 1
[6] = Cohort 6, 100 mg BID of Form B, Day 1
[7] = Compound I, 100 mg BID of Form B, Cohort 6
[8] = Compound I, 100 mg BID of Form B, Cohort 6, Day 29
[9] = Compound I, 150 mg BID of Form B, Cohort 7
[10] = Compound I, 150 mg BID of Form B, Cohort 7, Day 1
[11] = Compound I, 150 mg BID of Form B, Cohort 7, Day 29
[12] = Compound I, 200 mg BID of Form B, Cohort 7, Day 1
[13] = Compound I, 200 mg BID of Form B, Cohort 8
[14] = Compound I, 200 mg BID of Form B, Cohort 8, Day 29
[15] = Compound I, 200 mg QD of Form B, Cohort 1
[16] = Compound I, 200 mg QD of Form B, Cohort 1, Day 29
[17] = Compound I, 300 mg QD of Form B, Cohort 2
[18] = Compound I, 300 mg QD of Form B, Cohort 2, Day 29
[19] = Compound I, 400 mg QD of Form B, Cohort 3
[20] = Compound I, 400 mg QD of Form B, Cohort 3, Day 29
[21] = Compound I, 500 mg QD of Form B, Cohort 4
[22] = Compound I, 500 mg QD of Form B, Cohort 4, Day 29
[23] = Compound I, 650 mg QD of Form B, Cohort 5
[24] = Compound I, 650 mg QD of Form B, Cohort 5, Day 29

CC(C)N1CCN(c2ccc(Nc3ncc4cc5n(c4n3)C3(CCCCC3)CNC5=O)nc2)CC1 [Compound I, 2′-((5-(4-isopropylpiperazin-1-yl)pyridin-2-yl)amino)-7′,8′-dihydro-6′H-spiro[cyclohexane-1,9′-pyrazino[1′,2′:1,5]pyrrolo[2,3-d]pyrimidin]-6′-one]
AUClast (Max) [1]: 355 ng·h/mL | AUClast (Min) [1]: 98.9 ng·h/mL | Cmax (Max) [1]: 40.0 ng/mL | Cmax (Min) [1]: 8.26 ng/mL | AUClast (Max) [2]: 580 ng·h/mL | AUClast (Min) [2]: 106 ng·h/mL | AUClast (Max) [3]: 248 ng·h/mL | AUClast (Min) [3]: 177 ng·h/mL | Cmax (Max) [3]: 24.4 ng/mL | Cmax (Min) [3]: 14.4 ng/mL | AUClast (Max) [4]: 684 ng·h/mL | AUClast (Min) [4]: 403 ng·h/mL | Cmax (Max) [4]: 68.7 ng/mL | Cmax (Min) [4]: 27.8 ng/mL | AUClast (Max) [5]: 1040 ng·h/mL | AUClast (Min) [5]: 482 ng·h/mL | Cmax (Max) [5]: 80.7 ng/mL | Cmax (Min) [5]: 38.2 ng/mL | Tmax (Max) [5]: 10.0 h | AUClast (Max) [6]: 92.6 ng·h/mL | AUClast (Min) [6]: 42.8 ng·h/mL | Cmax (Max) [6]: 14.7 ng/mL | Cmax (Min) [6]: 7.25 ng/mL | Racc (Max) [7]: 2.96 (h * ng/mL)/(h * ng/mL) | Racc (Mean) [7]: 1.90 (h * ng/mL)/(h * ng/mL) | Racc (Median) [7]: 2.06 (h * ng/mL)/(h * ng/mL) | Racc (Min) [7]: 0.931 (h * ng/mL)/(h * ng/mL) | AUClast (Max) [8]: 183 ng·h/mL | AUClast (Min) [8]: 41.1 ng·h/mL | Cmax (Max) [8]: 20.5 ng/mL | Cmax (Min) [8]: 5.14 ng/mL | Tmax (Max) [8]: 12.0 h | Tmax (Min) [8]: 60 min | Racc (Max) [9]: 7.71 (h * ng/mL)/(h * ng/mL) | Racc (Mean) [9]: 3.88 (h * ng/mL)/(h * ng/mL) | Racc (Median) [9]: 2.28 (h * ng/mL)/(h * ng/mL) | Racc (Min) [9]: 1.66 (h * ng/mL)/(h * ng/mL) | AUClast (Max) [10]: 146 ng·h/mL | AUClast (Min) [10]: 103 ng·h/mL | Cmax (Max) [10]: 28.3 ng/mL | Cmax (Min) [10]: 12.2 ng/mL | AUClast (Max) [11]: 795 ng·h/mL | AUClast (Min) [11]: 235 ng·h/mL | Cmax (Max) [11]: 83.2 ng/mL | AUClast (Max) [12]: 185 ng·h/mL | AUClast (Min) [12]: 37.9 ng·h/mL | Cmax (Max) [12]: 29.0 ng/mL | Cmax (Min) [12]: 5.28 ng/mL | Racc (Max) [13]: 2.15 (h * ng/mL)/(h * ng/mL) | Racc (Mean) [13]: 2.06 (h * ng/mL)/(h * ng/mL) | Racc (Median) [13]: 2.11 (h * ng/mL)/(h * ng/mL) | Racc (Min) [13]: 1.91 (h * ng/mL)/(h * ng/mL) | AUClast (Max) [14]: 306 ng·h/mL | AUClast (Min) [14]: 79.8 ng·h/mL | Cmax (Max) [14]: 40.8 ng/mL | Cmax (Min) [14]: 7.69 ng/mL | Tmax (Max) [14]: 12.0 h | Racc (Max) [15]: 1.72 (h * ng/mL)/(h * ng/mL) | Racc (Mean) [15]: 1.17 (h * ng/mL)/(h * ng/mL) | Racc (Median) [15]: 1.15 (h * ng/mL)/(h * ng/mL) | Racc (Min) [15]: 0.740 (h * ng/mL)/(h * ng/mL) | AUClast (Max) [16]: 407 ng·h/mL | AUClast (Min) [16]: 73.2 ng·h/mL | Cmax (Max) [16]: 32.0 ng/mL | Cmax (Min) [16]: 5.90 ng/mL | Racc (Max) [17]: 3.62 (h * ng/mL)/(h * ng/mL) | Racc (Mean) [17]: 2.03 (h * ng/mL)/(h * ng/mL) | Racc (Median) [17]: 1.42 (h * ng/mL)/(h * ng/mL) | Racc (Min) [17]: 1.04 (h * ng/mL)/(h * ng/mL) | AUClast (Max) [18]: 789 ng·h/mL | AUClast (Min) [18]: 384 ng·h/mL | Cmax (Max) [18]: 73.0 ng/mL | Cmax (Min) [18]: 27.5 ng/mL | Tmax (Max) [18]: 10.0 h | Racc (Max) [19]: 1.90 (h * ng/mL)/(h * ng/mL) | Racc (Mean) [19]: 1.35 (h * ng/mL)/(h * ng/mL) | Racc (Median) [19]: 1.50 (h * ng/mL)/(h * ng/mL) | Racc (Min) [19]: 0.653 (h * ng/mL)/(h * ng/mL) | AUClast (Max) [20]: 371 ng·h/mL | AUClast (Min) [20]: 115 ng·h/mL | Cmax (Max) [20]: 26.7 ng/mL | Cmax (Min) [20]: 6.94 ng/mL | Racc (Max) [21]: 1.47 (h * ng/mL)/(h * ng/mL) | Racc (Mean) [21]: 1.12 (h * ng/mL)/(h * ng/mL) | Racc (Median) [21]: 0.965 (h * ng/mL)/(h * ng/mL) | Racc (Min) [21]: 0.932 (h * ng/mL)/(h * ng/mL) | AUClast (Max) [22]: 660 ng·h/mL | AUClast (Min) [22]: 570 ng·h/mL | Cmax (Max) [22]: 48.2 ng/mL | Cmax (Min) [22]: 36.4 ng/mL | Racc (Max) [23]: 1.47 (h * ng/mL)/(h * ng/mL) | Racc (Mean) [23]: 1.12 (h * ng/mL)/(h * ng/mL) | Racc (Median) [23]: 0.965 (h * ng/mL)/(h * ng/mL) | Racc (Min) [23]: 0.932 (h * ng/mL)/(h * ng/mL) | AUClast (Max) [24]: 660 ng·h/mL | AUClast (Min) [24]: 570 ng·h/mL | Cmax (Max) [24]: 48.2 ng/mL | Cmax (Min) [24]: 36.4 ng/mL
